The data set in a line: Viscosity of aqueous solution of constituent material (E-type viscometer). It counts as physicochemical. As to conditions: for Water absorption promoter, Viscosity: aqueous solution of 5 mass % at 37° C., Examples 1-3, 7, 10-12 glycerin, other Examples the promoter other than glycerin; for Antiadhesive agent, Viscosity: aqueous solution of 5 mass % of the antiadhesive agent at 37° C. The method, then:
Tables 1 and 2 shown the constituent materials of the intestinal collapse-controlling layer, the gel-forming layer and the antiadhesive layer of the orally-administered agents obtained in the respective Examples and the respective Comparative Examples and the contents thereof. […] Furthermore, the viscosity of the water absorption promoter in the Table 1 and the viscosity of the antiadhesive agent in the Table 2 denote a viscosity at 37° C. of an aqueous solution of 5 mass % of the water absorption promoter and the antiadhesive agent, respectively. Each viscosity was measured with an E-type viscometer (a product of Tokimec, Inc.).

Structures are written as SMILES.

`OC[C@@H](O)[C@@H](O)[C@H](O)[C@H](O)CO` [Man, mannitol]: the “Water absorption promoter, Viscosity” value is 0.87 mPa · s and the “Antiadhesive agent, Viscosity” value was 0.87 mPa · s.
For the molecule `OC[C@@H](O)[C@H](O)[C@@H](O)CO` [Xyl, xylitol], the “Water absorption promoter, Viscosity” value is 1.08 mPa · s and the “Antiadhesive agent, Viscosity” value is 0.87 mPa · s.

These data come from patent US20110182954A1, “ORALLY-ADMINISTERED AGENT” (LINTEC Corporation, priority 2008, published 2011).
